According to patent US11498949B2, “System and method for high-yield transient expression in mammalian cells” (LIFE TECHNLOLOGIES CORPORATION, priority 2012, dated 2022):

Test system: hIgG expression
Experiment: Expression enhancers in the transient transfection system, hIgG yield
Format: cell-based
Details: enhancer added alone to transient transfection; vs. control with neither Enhancer 1 nor Enhancer 2
Excerpt: Components were formulated into 2 stable Enhancer solutions.

CCCC(CCC)C(=O)O [Enhancer 1, valproic acid]
effect on hIgG expression: doubles hIgG expression

CCC(=O)[O-].[Na+] [Enhancer 2, sodium propionate]
effect on hIgG expression: no strong effect alone
